Measured values: patent US12221494B2, “Short synthetic peptides and their uses for treating retinal degenerative diseases and/or tissue injuries” (MacKay Memorial Hospital, priority 2019, dated 2025)
Ends that are not written are not given here.

Columns and labels:
Neuro-2a cells = test: Glutamate-induced Neuro-2a cell death (LDH release); assay type: cell-based, mouse; details: glutamate-induced cell death
Method: Neuro-2a cells were seeded in 48-well culture plates (1.5×10^5 cells/well) for 24 h, and then cultured in 0.5 ml fresh 2% FBS-DMEM medium containing 20 μM of the present peptide (7 μg of 6-mer in 0.5 ml medium) for further 4 h. Subsequently, 100 mM glutamate (from 1 M stock and PBS as solvent) was added to cells for further 6 h. Glutamate-induced cell death was quantitatively assessed by measuring lactate dehydrogenase (LDH) activity released into the culture medium by damaged cells. LDH activity was measured using PicoProbe™ LDH-Cytotoxicity Fluorometric Assay Kit (Catalog #K314-500; BioVision) according to the instruction manuals. LDH activity was estimated using an automated microplate reader (UVmax; Molecular Devices, San Francisco, CA) by measuring the fluorescent product (Ex/Em=535/587 nm).
Briefly, cells were pretreated with the designated peptide (i.e., any of SEQ ID NOs: 2 to 11) for 4 h and then treated with 100 mM glutamate for 6 h. The cell death was detected by a commercial lactate dehydrogenase (LDH) Cytotoxicity Assay Kit. Results are depicted in FIG. 1.

STAT3 = test: Western blot of STAT3 phosphorylation in C2C12 cells; assay type: cell-based, mouse; details: C2C12 myoblast cells, 5 to 20 min after stimulation
Method: Cell lysis, fractionation, and SDS-PAGE were conducted in accordance with procedures described previously (Yang Y C et al., BMC Cancer 2007; 7:216). Antibodies used in this study were for Phospho-Stat3 and STAT3 (1:1000-fold dilution). Proteins of interest were detected using the appropriate IgG-HRP secondary antibody (Santa Cruz Biotechnology) and ECL reagent (Amersham Biosciences).

survivin mRNA = test: Real-time qPCR of survivin mRNA in C2C12 cells; assay type: cell-based, mouse; details: C2C12 cells in low serum media, 20 μM peptide, 6 h
Method: (§1) Total RNA was extracted from cells using TRIzol (Invitrogen). Synthesis of cDNA was performed with 1 μg of total RNA at 50° C. for 50 min using oligo(dT) primers and reverse transcriptase (Superscript III; Invitrogen). Briefly, quantification of cDNA was performed in the LightCycler (Roche, Mannheim, Germany) using the DNA Master SYBR Green I kit (Roche) with the following cycling conditions: initial denaturation at 95° C. for 10 min, followed by 40 cycles at 95° C. for 10 s, 60° C. for 10 s, and 72° C. for 10 s and a 5-min terminal incubation at 72° C. The data were calculated with AACt. The expression was then normalized against the expression of glyceraldehyde-3-phosphate dehydrogenase (GAPDH). The PCR primers were mouse Survivin sense, 5′-[…]-3′ (SEQ ID NO: 27), anti-sense, 5′-[…]-3′ (SEQ ID NO: 28) (accession number: NM_001012273.1; PCR product: 136 bp); mouse GAPDH sense, 5′-[…]-3′ (SEQ ID NO: 29), anti-sense, 5′-[…]-3′ (SEQ ID NO: 30) (NM_001289726.1; 149 bp). For analysis rabbit inflammatory gene expression, The PCR primers were rabbit TNF-αsense, 5′-[…]-3′ (SEQ ID NO: 31), anti-sense, 5′-[…]-3′ (SEQ ID NO: 32) (accession number: NM 001082263.1); rabbit IL-1βsense, 5′-[…]-3′(SEQ ID NO: 33), anti-sense, 5′-[…]-3′ (SEQ ID NO: 34) (NM 001082201.1); rabbit GAPDH sense, 5′-[…]-3′ (SEQ ID NO: 35), anti-sense, 5′-[…]-3′ (SEQ ID NO: 36) (accession number:NM 001082253.1). The cycle threshold (Ct) values of the PCR product and a GAPDH (Glyceraldehyde 3-phosphate dehydrogenase) control mRNA were used to calculate relative quantities of mRNA.
Similar to the approach in Example 1.2.1, the expression level of survivin mRNA in C2C12 cells was used as an indicator for the function of the 6-mer variants in Tables 3 to 5. Briefly, C2C12 cells in low serum media were treated with 20 μM the 6-mer variants for 6 h. […] The results also confirmed that alanine substation at the glutamic acid (E) residues would severely impair the 6-mer activity.

[1] = tested on: Sprague-Dawley rats, retinal ischemia/reperfusion (I/R) injury; test: TUNEL staining of I/R-injured rat retina (20 h); assay type: in vivo; details: for Number of TUNEL-positive cells in retina: subconjunctival injection 1 mM 4 h before I/R, 20 hours after I/R injury, Vehicle + I/R 27.2 ± 2.7; for I/R-induced retinal cell apoptosis (TUNEL staining), in words: subconjunctival injection prior to I/R, 20 h reperfusion
Method: Experimental procedures were approved by the Mackay Memorial Hospital Review Board (Taiwan, R.O.C.). All surgeries were performed under aseptic conditions. Adult 10-week-old male Sprague-Dawley rats (initial body weight=312±11 g) were anesthetized by an intraperitoneal injection of xylazine (10 mg/kg). Peptide was dissolved in 0.85% normal saline to 1 mM and delivered by the subconjunctival injection of 100 μL peptide through a 31-Gneedle with a micro-syringe before the induction of I/R. Normal saline was as a vehicle control. Rat I/R was performed after peptide or vehicle injection for 4 h. Pupils were dilated with 0.5% tropicamide and 0.5% phenylephrine. Body temperature was maintained at 37° C. using a heating blanket After dilation of the pupil, the anterior chamber of the right eye was cannulated with a 27-gauge needle connected to a physiological saline reservoir. The intraocular pressure (IOP) was raised to 110 mmHg by keeping the reservoir at 150 cm above the eye, and retinal ischemia was confirmed by observing whitening of the iris and the loss of the red reflex of the retina. After 90 min of ischemia, the cannulating needle was withdrawn and the IOP was returned to normal pressure, resulting in recovery of the blood supply from the retinal artery and reperfusion injury induced. The reperfusion was evident by the return of the red reflex. Corneal analgesia was achieved using 1 or 2 drops of 0.4% oxybuprocaine hydrochloride, and Ofloxacin ophthalmic gel (0.3%) was applied topically to the eye before and after the procedure. Only the right eye was used in all experiments. A sham procedure was performed at left eye served as an intra-animal control.
After I/R for 20 h, rats (n=6 in each group) were euthanized by an overdose of pentobarbital. Enucleated eyeballs were fixed in 4% PFA for 24 h at 4° C. Fixed retinal tissues were embedded in paraffin. To identify apoptosis of retinal cells, 5 μm sections thick cut through the optic disc, de-paraffinized, rehydrated, incubatedwith 20 μg/mL proteinase K for 10 min, and immunofluorescence staining of apoptotic cells was performed using a terminal deoxynucleotidyl transferase(TdT)-mediated dUTP nick-end labeling (TUNEL)-based kit (Roche Molecular Biochemicals, Indianapolis, IN) according to the manufacturer's instructions. Nuclei were located by counterstaining with Hoechst 33258 for 7 min Sections were observed under an epifluorescence microscope (Zeiss Axioplan 2 imaging; Zeiss, Oberkochen, Germany) equipped with a charge-coupled device (CCD) camera (Zeiss AxioCam HRm, Zeiss) (×400, 6 fields/sample), and quantification was performed using Axiovert software (Zeiss AxioVision Release 4.8.2, Zeiss). Three sections per eye were averaged and the mean of six eyes was recorded as the representative value for each group.
In this example, the neuroprotective effect of the 6-mer variant peptides on neural retina cells and retinal capillary system was investigated using a rat model of I/R injury described in the “Material and Methods” section. Briefly, 6-mer variant peptide (1 mM, 120 μl) was injected into the subconjunctival space of Sprague-Dawley rats for 4 h before the induction of I/R. Then, I/R injury was induced in rat retinas by increasing the intraocular pressure (IOP) in the eye to 110 mmHg for 90 min, followed by 20 h of reperfusion. Subsequently, the level of retinal cell apoptosis was evaluated using TUNEL staining. In addition, the retinal morphology was analyzed with H&E staining 14 days after the I/R injury. Results are summarized in FIGS. 6 to 10, and Tables 6 to 9.

TNF-α mRNA = test: Hyperosmotic stress-induced TNF-α gene expression in rabbit corneal epithelial cells (qPCR); assay type: cell-based; details: 20 μM peptide 6 h, then hyperosmotic medium (463 mOsM) 3 h, solvent 12.8-fold
Method: as §1
(§2) Limbal stem epithelial cells (LSEC) were isolated from 6-month-old New Zealand white rabbits and continuously cultivated for 14 days byDMEM/F-12basalmedium based cell-suspension culture to achieve corneal-liked epithelial cell differentiation as previously described (Ho et al., Stem Cells. 2013; 31:1775). […] After 3 h, quantitative real-time PCR was used to estimate HOP-induced Tumor necrosis factor (TNF)-α and nterleukin-1 beta (IL-1β) expressions. […]

IL-1β mRNA = test: Hyperosmotic stress-induced IL-1β gene expression in rabbit corneal epithelial cells (qPCR); assay type: cell-based; details: 20 μM peptide 6 h, then hyperosmotic medium (463 mOsM) 3 h, solvent 4.5-fold
Method: as §1, §2

[2] = tested on: C57BL/6 mice, dry eye induced in controlled environment chamber (CEC); test: Dry eye animal model, corneal fluorescein staining; assay type: in vivo, mouse; details: mice 14 days in CEC, then treatment for 4 days
Method: Dry eyes were induced by placing mice in a controlled environment chamber (CEC) for 14 days in accordance with procedures previously described by Barabino et al (IVOS (2005) 46(8), 2766-2771). Mice placed in the CEC were exposed to a condition, in which relative humidity (RH) was maintained at <25%, temperature at 20-22° C., and airflow at about 15 L/min, for 12 hours per day. Control mice were kept in a normal environment (RH>50%, no air flow, temperature of 20-22° C.) for the same duration.
A common artificial tear formulation, 1% carboxymethylcelllulose (CMC) dissolved in balanced salt solution (BSS) was used as the peptide vehicle. Peptide (100 μM, about 0.7 μg peptide in 10 μl eye drop used for treating one eye) or 1% CMC vehicle was topically administered to eyes three times a day. To test whether the present synthetic peptide could exert any therapeutic action on dry eyes, mice were housed at CEC for 14 days without topical treatment, and then were treated with the present peptide for 4 days.
Animals were anesthetized by an intraperitoneal injection of a mixture of zoletil (6 mg/kg) and xylazine (3 mg/kg). Corneal epithelial injury was determined by staining with topical fluorescein (Fluor-I-Strip, Ayerst Laboratories, Philadelphia, PA). Corneal fluorescein staining was examined with a slit-lamp biomicroscope under cobalt blue light and photographed with a digital camera. Dye staining of the cornea was scored in a blinded manner as follows: score 0 for no punctuate staining; score 1 when less than one third of the cornea was stained; score 2 when two thirds or less was stained; and score 3 when more than two thirds was stained (Horwath-Winter J 2013).
Briefly, mice were housed at controlled environment chamber (CEC) for 14 days (set as Day 0) to induce corneal surface disruption. Corneal fluorescein staining was used to estimate the corneal surface injury and the animal with a staining score of 2 (after mice placed at CEC for 14 days) was subjected to peptide treatment. The 6-mer variant peptide formulation for the treatment of DED was described in Methods. […]

Substance	protective effect on Neuro-2a cells (neuroprotective activity), in words (Neuro-2a cells)	STAT3 phosphorylation (immunoblot) (STAT3)	survivin mRNA induction compared to solvent control (survivin mRNA) [fold]	Number of TUNEL-positive cells in retina [1]	I/R-induced retinal cell apoptosis (TUNEL staining), in words [1]	mRNA expression of TNF-α, in words (TNF-α mRNA)	mRNA expression of IL-1β, in words (IL-1β mRNA)	survivin mRNA induction, in words (survivin mRNA)	therapeutic effect on corneal fluorescein staining, in words [2]
NH2-(D-Ser)-Leu-Gly-Ala-Glu-COOH (SLGAE; HELM PEPTIDE1{[dS].L.G.A.E}$$$$V2.0; SMILES CC(C)C[C@H](NC(=O)[C@H](N)CO)C(=O)NCC(=O)N[C@@H](C)C(=O)N[C@@H](CCC(=O)O)C(=O)O) [5-mer dS]	lacks any significant neuroprotective activity	possessed no such effect							
NH2-Ser-Leu-Val-Ala-Glu-Gln-COOH (SLVAEQ; not fully specified (N-terminus, C-terminus); printed as NH2-Ser-Leu-Val-Ala-Glu-Gln-COOH) [6-mer Gv]			2.3	10.4 ± 1.4 /200 μm	reduced the retinal cell apoptosis induced by I/R	apparently repressed the mRNA expression of TNF-α and IL-1β	apparently repressed the mRNA expression of TNF-α and IL-1β		
NH2-Ser-Leu-Gly-(D-Ala)-Glu-Gln-COOH (SLGAEQ; HELM PEPTIDE1{S.L.G.[dA].E.Q}$$$$V2.0; SMILES CC(C)C[C@H](NC(=O)[C@@H](N)CO)C(=O)NCC(=O)N[C@H](C)C(=O)N[C@@H](CCC(=O)O)C(=O)N[C@@H](CCC(N)=O)C(=O)O) [6-mer dA]								hamper the survivin gene induction activity significantly	had no therapeutic effect
NH2-Ala-Leu-Gly-Ala-Glu-Gln-COOH (ALGAEQ; not fully specified (N-terminus, C-terminus); printed as NH2-Ala-Leu-Gly-Ala-Glu-Gln-COOH) [6-mer Sa]			1.7	12.6 ± 1.1 /200 μm	reduced the retinal cell apoptosis induced by I/R	apparently repressed the mRNA expression of TNF-α and IL-1β	apparently repressed the mRNA expression of TNF-α and IL-1β		
NH2-The-Leu-Gly-Ala-Glu-Gln-COOH (TLGAEQ; not fully specified (N-terminus, C-terminus); printed as NH2-The-Leu-Gly-Ala-Glu-Gln-COOH) [6-mer St]				21.8 ± 1.8 /200 μm	had no such effect			severely impaired the survivin mRNA induction	had no therapeutic effect
